Experiment: Inhibition of Bcr-Abl in mouse BA/F3 cells

Compound	EC50 [nM]
FC(F)(F)Oc1ccc(Nc2nccc(NCCN3CCOCC3)n2)cc1 [N4-(2-morpholinoethyl)-N2-(4-(trifluoromethoxy)phenyl)pyrimidine-2,4-diamine]	> 10000
FC(F)(F)Oc1cccc(Nc2cc(NCCN3CCOCC3)ncn2)c1 [N4-(2-morpholinoethyl)-N6-(3-(trifluoromethoxy)phenyl)pyrimidine-4,6-diamine]	> 10000
FC(F)(F)Oc1ccc(CNc2cc(NCCN3CCOCC3)ncn2)cc1 [N4-(2-morpholinoethyl)-N6-(4-(trifluoromethoxy)benzyl)pyrimidine-4,6-diamine]	> 10000
FC(F)(F)Oc1ccc(Nc2cc(NCCN3CCOCC3)ncn2)cc1 [N4-(2-morpholinoethyl)-N6-(4-(trifluoromethoxy)phenyl)pyrimidine-4,6-diamine]	720
FC(F)(F)c1ccc(Nc2cc(NCCN3CCOCC3)ncn2)cc1 [N4-(2-morpholinoethyl)-N6-(4-(trifluoromethyl)phenyl)pyrimidine-4,6-diamine]	920
FC(F)(F)Oc1ccc(Nc2cc(NCCCN3CCOCC3)ncn2)cc1 [N4-(3-morpholinopropyl)-N6-(4-(trifluoromethoxy)phenyl)pyrimidine-4,6-diamine]	4470
COc1ccc(Nc2cc(NCCN3CCOCC3)ncn2)cc1 [N4-(4-methoxyphenyl)-N6-(2-morpholinoethyl)pyrimidine-4,6-diamine]	> 10000
CN(c1ccc(OC(F)(F)F)cc1)c1cc(NCCN2CCOCC2)ncn1 [N4-methyl-N6-(2-morpholinoethyl)-N4-(4-(trifluoromethoxy)phenyl)pyrimidine-4,6-diamine]	> 10000
O=C(NCCO)c1cc2c(Nc3ccc(OC(F)(F)F)cc3)ncnc2s1 [N-(2-Hydroxyethyl)-4-(4-(trifluoromethoxy)phenylamino)thieno[2,3-d]pyrimidine-6-carboxamide]	> 10000
O=C(NCCN1CCOCC1)c1cccc(-c2cc(Nc3ccc(OC(F)(F)F)cc3)ncn2)c1 [N-(2-morpholinoethyl)-3-(6-(4-(trifluoromethoxy)phenylamino)pyrimidin-4-yl)benzamide]	420
FC(F)(F)Oc1ccc(Oc2cc(NCCN3CCOCC3)ncn2)cc1 [N-(2-morpholinoethyl)-6-(4-(trifluoromethoxy)phenoxy)pyrimidin-4-amine]	> 10000
FC(F)(F)Oc1ccc(-c2cc(NCCN3CCOCC3)ncn2)cc1 [N-(2-morpholinoethyl)-6-(4-(trifluoromethoxy)phenyl)pyrimidin-4-amine]	> 10000
CS(=O)(=O)Nc1ccc(-c2cc(Nc3ccc(OC(F)(F)F)cc3)ncn2)cc1 [N-(4-(6-(4-(trifluoromethoxy)phenylamino)pyrimidin-4-yl)phenyl)methanesulfonamide]	40
FC(F)(F)Oc1ccc(Nc2ncnc3[nH]ccc23)cc1 [N-(4-(Trifluoromethoxy)phenyl)-7H-pyrrolo[2,3-d]pyrimidin-4-amine]	> 10000
FC(F)(F)Oc1ccc(Nc2ncnc3n[nH]cc23)cc1 [N-(4-(trifluoromethoxy)phenyl)-1H-pyrazolo[3,4-d]pyrimidin-4-amine]	1300
Cc1nn(C)c(C)c1-c1cc(Nc2ccc(OC(F)(F)F)cc2)ncn1 [N-(4-(trifluoromethoxy)phenyl)-6-(1,3,5-trimethyl-1H-pyrazol-4-yl)pyrimidin-4-amine]	150
Fc1ccc(Nc2cc(-c3ccncc3)ncn2)cc1 [N-(4-fluorophenyl)-6-(pyridin-4-yl)pyrimidin-4-amine]	> 10000
COc1ccc(Nc2cc(-c3ccncc3)ncn2)cc1 [N-(4-methoxyphenyl)-6-(pyridin-4-yl)pyrimidin-4-amine]	> 10000
CCNC(=O)c1cc2c(Nc3ccc(OC(F)(F)F)cc3)ncnc2s1 [N-ethyl-4-(4-(trifluoromethoxy)phenylamino)thieno[2,3-d]pyrimidine-6-carboxamide]	918
CNC(=O)c1cccc(-c2cc(Nc3ccc(OC(F)(F)F)cc3)ncn2)c1 [N-methyl-3-(6-(4-(trifluoromethoxy)phenylamino)pyrimidin-4-yl)benzamide]	340
CN(c1ccc(OC(F)(F)F)cc1)c1cc(-c2ccncc2)ncn1 [N-methyl-6-(pyridin-4-yl)-N-(4-(trifluoromethoxy)phenyl)pyrimidin-4-amine]	> 10000
COC(=O)c1cc2c(Nc3ccc(OC(F)(F)F)cc3)ncnc2s1 [methyl 4-(4-(trifluoromethoxy)phenylamino)thieno[2,3-d]pyrimidine-6-carboxylateMethyl 4-(4-(Trifluoromethoxy)-phenylamino)thieno[2,3-d]pyrimidine-6-carboxylate]	5600
O=C(c1cccc(-c2cc(Nc3ccc(OC(F)(F)F)cc3)ncn2)c1)N1CCOCC1 [morpholino(3-(6-(4-(trifluoromethoxy)phenylamino)pyrimidin-4-yl)phenyl)methanone]	240

Source: BindingDB's records for doi:10.1021/jm100555f (Harvard Medical School, 2010)
